Calls of active or inactive are those of the source. The rule behind the calls is not given here.
Experiments:
[1] = molecular target: Endoribonuclease Dicer (Homo sapiens) (UniProt Q9UPY3); assay: Inhibition of human recombinant Dicer-mediated long dsRNA digestion assessed as 21- to 23-mer short RNA formation at 200 uM after 3 hrs by denaturing-PAGE analysis
[2] = molecular target: Endoribonuclease Dicer (Homo sapiens) (UniProt Q9UPY3); assay: Inhibition of human recombinant Dicer-mediated pre-miR-29a processing assessed as reduction of mature miR-29a formation at 200 uM after 3 hrs by Northern blot analysis
[3] = molecular target: Endoribonuclease Dicer (Homo sapiens) (UniProt Q9UPY3); assay: Inhibition of human recombinant Dicer-mediated pre-miR-29a without internal loop processing assessed as reduction of mature miR-29a formation by Northern blot analysis (reference value: 30%); conditions: concentration not given here
[4] = molecular target: Endoribonuclease Dicer (Homo sapiens) (UniProt Q9UPY3); assay: Inhibition of human recombinant Dicer-mediated pre-miR-29a processing assessed as reduction of mature miR-29a formation by Northern blot analysis (reference value: 41%); conditions: concentration not given here
[5] = molecular target: Endoribonuclease Dicer (Homo sapiens) (UniProt Q9UPY3); assay: Inhibition of human recombinant Dicer-mediated pre-miR-29a without bulge loop processing assessed as reduction of mature miR-29a formation by Northern blot analysis (reference value: 51%); conditions: concentration not given here

Endoribonuclease Dicer (Homo sapiens), sequence (Q9UPY3 whole entry): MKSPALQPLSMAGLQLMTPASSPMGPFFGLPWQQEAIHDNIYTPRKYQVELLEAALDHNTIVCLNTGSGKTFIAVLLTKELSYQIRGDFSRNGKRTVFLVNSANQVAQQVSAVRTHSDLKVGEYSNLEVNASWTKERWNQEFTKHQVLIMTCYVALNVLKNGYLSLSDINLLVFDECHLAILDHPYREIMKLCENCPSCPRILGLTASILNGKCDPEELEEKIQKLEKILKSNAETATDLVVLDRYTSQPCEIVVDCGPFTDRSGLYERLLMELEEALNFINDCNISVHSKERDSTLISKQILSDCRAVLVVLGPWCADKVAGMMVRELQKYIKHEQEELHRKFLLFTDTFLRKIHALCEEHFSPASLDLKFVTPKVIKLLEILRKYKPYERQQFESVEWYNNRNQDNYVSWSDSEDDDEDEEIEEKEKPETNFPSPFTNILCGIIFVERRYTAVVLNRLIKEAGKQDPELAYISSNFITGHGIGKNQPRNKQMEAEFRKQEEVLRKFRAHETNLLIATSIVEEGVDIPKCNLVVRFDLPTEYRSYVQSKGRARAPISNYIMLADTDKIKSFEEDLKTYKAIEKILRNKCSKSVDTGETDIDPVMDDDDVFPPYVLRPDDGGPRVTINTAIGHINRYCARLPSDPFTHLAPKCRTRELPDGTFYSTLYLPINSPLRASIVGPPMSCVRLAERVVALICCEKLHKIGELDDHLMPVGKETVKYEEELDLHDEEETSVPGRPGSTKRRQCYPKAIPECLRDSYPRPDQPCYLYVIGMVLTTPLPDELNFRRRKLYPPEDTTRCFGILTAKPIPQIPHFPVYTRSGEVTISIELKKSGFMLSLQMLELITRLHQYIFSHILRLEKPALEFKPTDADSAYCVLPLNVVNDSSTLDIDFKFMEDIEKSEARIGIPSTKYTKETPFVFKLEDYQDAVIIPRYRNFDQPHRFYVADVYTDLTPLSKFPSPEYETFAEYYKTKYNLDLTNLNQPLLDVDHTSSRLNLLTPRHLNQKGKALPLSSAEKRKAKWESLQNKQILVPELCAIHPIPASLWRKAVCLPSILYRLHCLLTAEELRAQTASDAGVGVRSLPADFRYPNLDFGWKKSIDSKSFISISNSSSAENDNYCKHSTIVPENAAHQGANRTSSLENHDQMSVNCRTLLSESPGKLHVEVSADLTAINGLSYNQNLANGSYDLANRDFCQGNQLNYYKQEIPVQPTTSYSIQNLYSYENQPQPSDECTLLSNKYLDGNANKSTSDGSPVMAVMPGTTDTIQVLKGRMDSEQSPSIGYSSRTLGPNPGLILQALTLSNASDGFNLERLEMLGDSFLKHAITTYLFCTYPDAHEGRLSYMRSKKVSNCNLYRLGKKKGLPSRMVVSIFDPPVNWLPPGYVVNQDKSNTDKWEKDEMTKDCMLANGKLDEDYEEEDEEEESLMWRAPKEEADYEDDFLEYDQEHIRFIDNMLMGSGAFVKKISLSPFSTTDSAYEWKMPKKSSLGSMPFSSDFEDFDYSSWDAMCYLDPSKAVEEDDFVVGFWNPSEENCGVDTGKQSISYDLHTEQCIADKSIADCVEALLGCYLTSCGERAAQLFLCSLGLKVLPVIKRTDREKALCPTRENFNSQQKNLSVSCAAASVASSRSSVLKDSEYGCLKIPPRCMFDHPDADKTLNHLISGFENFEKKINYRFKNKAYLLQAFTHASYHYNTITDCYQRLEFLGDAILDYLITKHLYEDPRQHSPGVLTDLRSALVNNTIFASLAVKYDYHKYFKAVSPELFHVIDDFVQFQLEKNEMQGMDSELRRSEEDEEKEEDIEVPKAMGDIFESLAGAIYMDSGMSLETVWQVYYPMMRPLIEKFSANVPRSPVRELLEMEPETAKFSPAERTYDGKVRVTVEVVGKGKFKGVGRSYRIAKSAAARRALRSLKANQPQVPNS

| inhibition [1] | inhibition [2] | inhibition [3] | inhibition [4] | inhibition [5] | SMILES |
| --- | --- | --- | --- | --- | --- |
| inactive | inactive |  |  |  | NCCCCCCOc1ccc2oc3ccc(OCCCCCCN)cc3c(=O)c2c1 |
| inactive | Active | 22% | 23% | 46% | NCCOc1ccc2sc3ccc(OCCN)cc3c(=O)c2c1 |
| inactive | inactive |  |  |  | CN(C)CCOc1ccc2sc3ccc(OCCN(C)C)cc3c(=O)c2c1 |
| inactive | Active |  |  |  | NCCOc1ccc2oc3ccc(OCCN)cc3c(=O)c2c1 |
| inactive | inactive |  |  |  | CC(CN)Oc1ccc2oc3ccc(OC(C)CN)cc3c(=O)c2c1 (stereo not given) |
| inactive | inactive |  |  |  | CN(C)CCOc1ccc2oc3ccc(OCCN(C)C)cc3c(=O)c2c1 |
